The values that follow come from PubChem BioAssay (NCI).

Molecules are shown by their SMILES.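 Test compounds were applied to cells in 96-well plates for 48 hours at 5 doses. At the TGI there is no net growth.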

Some test systems named below: M19-MEL melanoma; KM20L2 colon; DMS 114 small cell lung; LXFL 529 NSCLC; XF 498 CNS; RXF-631 renal; HOP-18 NSCLC; DMS 273 small cell lung; DLD-1 colon; P388 leukemia; SN12K1 renal; P388/ADR leukemia.
Holding throughout (assay): NCI tumour cell line growth inhibition, 48 h

As for `COc1ccc(/C(Cl)=C(\C=O)c2ccc(OC)c(OC)c2)cc1`, the TGI in the assay on M19-MEL melanoma is greater than 100 µM; in the assay with KM20L2 colon, greater than 100 µM; in the assay on DMS 114 small cell lung it was greater than 100 µM; in the assay on LXFL 529 NSCLC, greater than 100 µM; with XF 498 CNS, 56.1 µM; in the assay on RXF-631 renal, greater than 100 µM. This compound came in with a TGI in the assay on HOP-18 NSCLC greater than 100 µM.
In the case of `O=C1NP23(OCCO2)Oc2ccccc2C3(C(F)(F)F)O1` (stereo unspecified), the TGI in the assay on DMS 273 small cell lung, in the assay with DLD-1 colon, with M19-MEL melanoma, in the assay on DMS 114 small cell lung, in the assay on LXFL 529 NSCLC and with XF 498 CNS was greater than 100 µM throughout. In the assay on HOP-18 NSCLC, this compound yielded a TGI greater than 100 µM.
On to `COc1cc(N=Nc2cccc(S(=O)(=O)O)c2)ccc1N=Nc1ccc(/C=C/c2ccc(-n3on3-c3ccc(/C=C/c4ccc(N=Nc5ccc(N=Nc6cccc(S(=O)(=O)O)c6)cc5OC)cc4S(=O)(=O)O)c(S(=O)(=O)O)c3)cc2S(=O)(=O)O)c(S(=O)(=O)O)c1`, for which the TGI in the assay with DMS 273 small cell lung, in the assay on DLD-1 colon, with M19-MEL melanoma, with P388 leukemia, with KM20L2 colon and in the assay with DMS 114 small cell lung was greater than 100 µM in each case. For the same compound, the TGI in the assay with SN12K1 renal, in the assay with P388/ADR leukemia, in the assay on XF 498 CNS and in the assay with HOP-18 NSCLC was greater than 100 µM throughout.
For `CN1C(=O)CSC1=S`, the TGI with DMS 273 small cell lung, in the assay on DLD-1 colon, in the assay on M19-MEL melanoma, in the assay on KM20L2 colon, in the assay with DMS 114 small cell lung and with LXFL 529 NSCLC was greater than 100 µM in each case. Moreover, the TGI in the assay with HOP-18 NSCLC is greater than 100 µM.
In the case of `N#CC(OC1OC(COC2OC(CO)C(O)C(O)C2O)C(O)C(O)C1O)c1ccccc1` (stereo unspecified), the TGI in the assay with DMS 273 small cell lung, in the assay with DLD-1 colon, in the assay on M19-MEL melanoma, in the assay on P388 leukemia, with KM20L2 colon and in the assay with DMS 114 small cell lung was greater than 225 µM throughout. The TGI in the assay on SN12K1 renal, with P388/ADR leukemia, with XF 498 CNS and in the assay with HOP-18 NSCLC was greater than 225 µM throughout.
